Results published in PubChem BioAssay (NCI).
Several values for one entry are separate records, joined by “and”; a condition that tells them apart may be missing. Equal entries are not always repeated.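 Each compound was tested at five concentrations against cells in 96-well plates for 48 hours. GI50 is the concentration that inhibits growth by half. The concentration for full growth arrest is given as TGI.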

Assays:
Assay in all cases: NCI tumour cell line growth inhibition, 48 h
HCC-2998 colon = test system: HCC-2998 colon
M14 melanoma = test system: M14 melanoma
SK-OV-3 ovarian = test system: SK-OV-3 ovarian
HS 578T breast = test system: HS 578T breast
NCI-H23 lung = test system: NCI-H23 lung
SR leukemia = test system: SR leukemia
KM12 colon = test system: KM12 colon
OVCAR-4 ovarian = test system: OVCAR-4 ovarian
A498 renal = test system: A498 renal
SF-539 CNS = test system: SF-539 CNS

SMILES | GI50 (HCC-2998 colon) | TGI (HCC-2998 colon) | GI50 (M14 melanoma) | TGI (M14 melanoma) | TGI (SK-OV-3 ovarian) | GI50 (HS 578T breast) | TGI (HS 578T breast) | GI50 (NCI-H23 lung) | TGI (NCI-H23 lung) | GI50 (SR leukemia) | TGI (SR leukemia) | GI50 (KM12 colon) | TGI (KM12 colon) | GI50 (OVCAR-4 ovarian) | TGI (OVCAR-4 ovarian) | GI50 (A498 renal) | TGI (A498 renal) | GI50 (SF-539 CNS) | TGI (SF-539 CNS) | GI50 (SK-OV-3 ovarian)
CC1=C/C(O)CC(=O)Cc2nc(co2)C(=O)N2CCC=C2C(=O)OC(C(C)C)C(C)/C=C\C(=O)NC/C=C\1 (stereo not drawn) | 16.2 µM | 31.6 µM and 34.5 µM | 23000 nM | > 100 µM and 42.3 µM | > 100 µM | > 75.8 µM | > 100 µM and 59.4 µM | 14.2 µM | 44.4 µM and 37.7 µM | > 100 µM | > 100 µM and 44.6 µM | 15.1 µM | 30.3 µM and 25.3 µM | 16.1 µM | > 100 µM | 44.9 µM | > 84.1 µM and 76.3 µM | 10.9 µM | 46.3 µM and > 100 µM | 
OCc1ncc(-c2ccccc2)s1 | > 100 µM | > 100 µM | > 100000 nM | > 100 µM | > 100 µM | > 100 µM | > 100 µM | > 100 µM | > 100 µM | > 100 µM | > 100 µM | > 100 µM | > 100 µM | > 100 µM | > 100 µM | > 100 µM | > 100 µM | > 100 µM | > 100 µM | > 100 µM
Cc1[nH]c(=O)nc(N/N=C/c2ccc(Cl)cc2)c1C(=O)Nc1ccc(Cl)cc1 |  | > 100 µM |  | 40.3 µM | 57.9 µM |  | > 100 µM |  | > 93.1 µM |  | > 100 µM |  | > 100 µM |  | 22.4 µM |  | 57.2 µM |  | 67.6 µM | 
CC(=O)OC1CC2(O)C(CCC3(C)C(c4ccc(=O)oc4)CCC32O)C2(C)CCC(OC3OC(CO)C(O)C(O)C3O)C=C12 (stereo not drawn) | 0.0735 µM | 0.419 µM | 35.6 nM | 0.129 µM | 0.717 µM | 0.0103 µM | 0.701 µM | 0.0114 µM | 0.0539 µM | 0.015 µM | 0.0541 µM | 0.0416 µM | 0.2 µM | 0.0273 µM | 0.153 µM | 0.0339 µM | 0.287 µM | 0.0144 µM | 0.0331 µM | 0.0447 µM
Clc1ccc(N/N=C(\c2ccccc2)c2ccccn2)nc1 | 0.341 µM | > 48.4 µM and 21.1 µM | 87.9 nM | 14.4 µM and 16.1 µM | > 100 µM | 0.781 µM |  | 0.279 µM | > 77.9 µM and 12.9 µM | 0.0769 µM | 3.5 µM | 0.39 µM | > 41.4 µM and 5.81 µM | 0.0201 µM | > 100 µM and 56.2 µM | 0.133 µM | 16.4 µM and > 100 µM | 0.297 µM | 5.57 µM and 9.47 µM | 
N=C1N=C(N)S/C1=C\c1ccc2ncccc2c1 | > 25 µM | > 25 µM | > 25000 nM | > 25 µM | > 25 µM | > 19.1 µM | > 25 µM | > 25 µM | > 25 µM | > 25 µM | > 25 µM | > 25 µM | > 25 µM | > 25 µM | > 25 µM | 13.7 µM | > 25 µM | > 25 µM | > 25 µM | > 25 µM
CN(N=O)C(=O)Nc1ccc(C(=O)O)cc1 |  | > 100 µM |  | > 100 µM | > 100 µM |  | > 100 µM |  | > 100 µM |  | > 100 µM |  | > 100 µM |  | > 100 µM |  | > 100 µM |  | > 100 µM | 
O=C(Nc1cc(C(F)(F)F)cc(C(F)(F)F)c1)Nc1ccc(OCc2nnc(-c3ccc(Cl)cc3)o2)c(F)c1 | 3.12 µM | 12 µM | 2720 nM | 11.1 µM | 9.51 µM | 2.38 µM | 12.1 µM | 1.88 µM | 6.26 µM | 2.38 µM | 10 µM | 1 µM | 5.72 µM | 2.31 µM | 10 µM | 1.91 µM | 6.5 µM | 2.83 µM | 8.47 µM | 2.69 µM
O=C1c2ccccc2C(=O)c2sc(Nc3ccc(Cl)cc3)nc21 |  | 7.43 µM |  | 3.96 µM | 30.4 µM | 2.92 µM | 14.1 µM |  | 2.81 µM |  | 5.84 µM |  | 5.03 µM |  | 4.12 µM |  | 29.7 µM |  | 6.33 µM | 
COc1ccc2c(c1)C(=O)c1c-2n(CCCN=[N+]=[N-])c(=O)c2cc(N)ccc12 | > 100 µM | > 100 µM | > 100000 nM | > 100 µM | > 100 µM | > 100 µM | > 100 µM | > 100 µM | > 100 µM | 89.6 µM | > 100 µM | 53.6 µM | > 100 µM | 17.8 µM | > 100 µM | > 100 µM | > 100 µM | > 100 µM | > 100 µM | > 100 µM
C/C(=C1/N=C(c2ccccc2)OC1=O)c1ccccc1 |  | > 100 µM |  | > 100 µM | > 100 µM |  | > 100 µM |  | > 100 µM |  | > 100 µM |  | > 100 µM |  | > 100 µM |  | > 100 µM |  | > 100 µM | 
O=C(c1ccccc1)c1ccc(O)c2ncccc12 | 16.7 µM | 41.1 µM | 2700 nM | 19.5 µM | 19.1 µM | 5.08 µM | 72 µM | 4.85 µM | 19.6 µM | 1.15 µM | > 100 µM | 3.25 µM | 16.9 µM | 2.96 µM | 11 µM | 9.29 µM | 27.4 µM | 4.66 µM | 21.3 µM | 6.02 µM
CCCCCCCC(=O)NS(=O)(=O)c1ccccc1 |  | > 100 µM |  | > 100 µM | > 100 µM |  | > 100 µM |  | > 100 µM |  | > 100 µM |  | > 100 µM |  | > 100 µM |  | > 100 µM |  | > 100 µM | 
N#CSCC1CC(O)(c2ccccc2)CC(c2ccc(Cl)cc2)O1 (stereo not drawn) | 8.56 µM | 21.5 µM | 1750 nM | 3.28 µM | 27.5 µM | 3.24 µM | 13.2 µM | 2.41 µM | 6.53 µM | 1.65 µM | 5.02 µM | 1.77 µM | 3.36 µM | 4.44 µM | 15.3 µM | 1.88 µM | 8.63 µM | 1.54 µM | 3.32 µM | 14.3 µM
CNC(=O)/C(=C/c1ccc(OC)cc1)c1cc(OC)c(OC)c(OC)c1 |  | 17.7 µM |  | > 34.6 µM | 29 µM |  | 5.71 µM |  | 32.6 µM |  | > 31.1 µM |  | > 83.9 µM |  | 99.7 µM |  | > 43.4 µM |  | 3.58 µM | 
C[n+]1cc2cc3c(cc2c2ccccc21)OCO3 | 3.81 µM | 19.2 µM | 16000 nM | > 100 µM | > 100 µM | 2 µM | 7.71 µM | 2.37 µM | 13.6 µM | 3.78 µM | > 100 µM | 1.22 µM | 10.1 µM | 3.78 µM | 36 µM | 1.05 µM | 8.57 µM | 4.83 µM | 23.8 µM | 7.96 µM
COc1cc2c(c(OC)c1OC)C(=O)c1c-2n(CCCN=[N+]=[N-])c(=O)c2cc([N+](=O)[O-])ccc12 | > 100 µM | > 100 µM | > 100000 nM | > 100 µM | > 100 µM | 25.3 µM | > 100 µM | 50.8 µM | > 100 µM | 16.3 µM | 41.9 µM | > 100 µM | > 100 µM | 46.8 µM | > 100 µM | 14 µM | 54.1 µM | 39.2 µM | > 100 µM | 62.7 µM
CC(=O)N1N=C(c2ccc(Nc3nc(Nc4ccc(F)cc4)nc(Nc4ccc(Cl)cc4)n3)cc2)CC1c1ccc(N(C)C)cc1 (stereo not drawn) | 2.26 µM | 7.45 µM | 3050 nM | 10.8 µM | > 31.2 µM | 8.09 µM | 97.9 µM | 2.96 µM | 16.1 µM | 2.1 µM | 5.18 µM | 6.02 µM | 20.9 µM | 4.41 µM | > 100 µM | 14.4 µM | 50.5 µM | 15.8 µM | > 63.9 µM | 6.82 µM
O=C(O)c1cc2cc(O)ccc2[nH]1 | > 100 µM | > 100 µM | > 100000 nM | > 100 µM | > 100 µM | > 100 µM | > 100 µM | > 100 µM | > 100 µM | > 100 µM | > 100 µM | > 100 µM | > 100 µM | > 100 µM | > 100 µM | > 100 µM | > 100 µM | > 100 µM | > 100 µM | > 100 µM
CCOC(=O)C(O)Cc1cnc2ccccc2n1 (stereo not drawn) |  | > 100 µM |  | > 100 µM | > 100 µM |  | > 100 µM |  | > 100 µM |  | > 100 µM |  | > 100 µM |  | > 100 µM |  | > 100 µM |  | > 100 µM | 
Cc1ccc(NC(=O)N2CCCCC2)cc1[N+](=O)[O-] | > 100 µM | > 100 µM | > 100000 nM | > 100 µM | > 100 µM | > 100 µM | > 100 µM | > 100 µM | > 100 µM | > 100 µM | > 100 µM | > 100 µM | > 100 µM | > 100 µM | > 100 µM | 87.8 µM | > 100 µM | > 100 µM | > 100 µM | > 100 µM
CC(C)c1ccc(/C=N/N=C(N)N)cc1 | 2.04 µM | 4.78 µM | 2020 nM | 4.2 µM | 13 µM | 11.5 µM | 36.5 µM | 3.96 µM | 19.7 µM | 3.31 µM | 12.7 µM | 3.3 µM | 11.6 µM | 10.3 µM | 23.2 µM | 11.3 µM | 23.8 µM | 11.6 µM | 25.3 µM | 3.24 µM
